In assay [1] the test system is endogenous SK activity in MDA-MB-231 cells. The experiment in a line: Cellular S1P production (endogenous SK activity) in MDA-MB-231 cells. The format is cell-based. The following applies: Homo sapiens; for inhibition at 20 µg/mL: MDA-MB-231, MDA-MB-231 cells incubated with 20 μg/mL of compound, percentage of S1P production inhibited. The protocol: (§1) Human SK was incubated with 6 μg/mL of the indicated compounds, and then assayed for activity as described above. Values in the column labeled “Recombinant SK (% inhibition)” represent the percentage of SK activity that was inhibited. MDA-MB-231 cells were incubated with 20 μg/mL of the indicated compounds and then assayed for endogenous SK activity as indicated above. Values in the column labeled “Cellular S1P (% inhibition)” represent the percentage of S1P production that was inhibited. Additionally, MDA-MB-231 cells were treated with varying concentration of certain compounds and the amount of S1P produced by the cells was determined. Values in the column labeled “Cellular S1P IC50 (μM)” represent the concentration of compound required to inhibit the production of S1P by 50%. ND=not determined.

A further assay has as its target T1, recombinant human SK (Homo sapiens, UniProt Q9NYA1).
T1 construct: GST (glutathione-S-transferase) (N); made in house; host or cells: bacteria (pGEX bacterial expression vector)
The experiment in a line: Recombinant human SK activity assay ([3H]sphingosine to [3H]S1P). The format is biochemical. The following applies: Human SK incubated with 6 μg/mL of compound; percentage of SK activity inhibited. The protocol:
SK activity is measured by incubation of the recombinant SK with [^3H]sphingosine and 1 mM ATP under defined conditions, followed by extraction of the assay mixture with chloroform:methanol under basic conditions. […] Radioactivity in aliquots of the aqueous phase is then quantified as a measure of [^3H]S1P formation.
as §1

T1 sequence (Q9NYA1 whole entry): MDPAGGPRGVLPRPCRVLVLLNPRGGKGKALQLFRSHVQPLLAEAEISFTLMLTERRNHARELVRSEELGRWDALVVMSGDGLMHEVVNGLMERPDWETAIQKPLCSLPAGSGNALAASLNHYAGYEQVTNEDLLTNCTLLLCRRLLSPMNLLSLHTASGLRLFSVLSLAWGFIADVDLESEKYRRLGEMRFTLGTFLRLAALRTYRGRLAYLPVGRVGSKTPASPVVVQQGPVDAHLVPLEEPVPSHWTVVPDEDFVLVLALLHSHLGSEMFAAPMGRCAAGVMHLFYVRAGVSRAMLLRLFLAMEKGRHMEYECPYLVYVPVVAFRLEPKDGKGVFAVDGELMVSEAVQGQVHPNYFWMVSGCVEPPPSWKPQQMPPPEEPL

A word on the inhibition: it is the relative decrease from the control value, in per cent. On to `CC(C)NC(=O)C12CC3CC(C1)CC(c1ccc(Cl)cc1)(C3)C2` [A1, 3-(4-Chloro-phenyl)-adamantane-1-carboxylic acid isopropylamide], for which, in assay [1], 20 µg/mL produced 0% inhibition. For the same compound, the inhibition at 6 µg/mL on recombinant human SK turned out to be 38%.

Regarding `O=C(Nc1ccccc1)C12CC3CC(C1)CC(c1ccc(Cl)cc1)(C3)C2` [A4, 3-(4-Chloro-phenyl)-adamantane-1-carboxylic acid phenylamide], at 20 µg/mL the inhibition in assay [1] was 14%. The inhibition at 6 µg/mL at recombinant human SK is 44%. Turning to `O=C(Nc1ccc(O)cc1)C12CC3CC(CC(C3)C1)C2` [A5, Adamantane-1-carboxylic acid (4-hydroxy-phenyl)-amide], in assay [1], at 20 µg/mL the inhibition was 17%. The inhibition at 6 µg/mL at recombinant human SK was 100%. What is called IC50 is the midpoint of a concentration-inhibition curve. Read a high IC50 as weaker potency in that assay. For `O=C(Nc1ccc(O)cc1)C12CC3CC(C1)CC(c1ccc(Cl)cc1)(C3)C2` [A6, 3-(4-Chloro-phenyl)-adamantane-1-carboxylic acid (4-hydroxy-phenyl)-amide], 20 µg/mL produced 90% inhibition in assay [1]. Moreover, the IC50 in assay [1] (MDA-MB-231 cells, varying concentrations, concentration inhibiting S1P production by 50%) was 15 µM. Further, the inhibition at 6 µg/mL on recombinant human SK stood at 72%. Take `CC(=O)Oc1ccc(NC(=O)C23CC4CC(C2)CC(c2ccc(Cl)cc2)(C4)C3)cc1` [A7, Acetic acid 4-{[3-(4-chloro-phenyl)-adamantane-1-carbonyl]-amino}-phenyl ester]: the inhibition at 20 µg/mL in assay [1] worked out at 96%. In addition, on recombinant human SK, the inhibition at 6 µg/mL amounted to 100%. For `O=C(Nc1ccc(O)cc1O)C12CC3CC(C1)CC(c1ccc(Cl)cc1)(C3)C2` [A8, 3-(4-Chloro-phenyl)-adamantane-1-carboxylic acid (2,4-dihydroxy-phenyl)-amide] the same measures were 0% and 49%. For `O=C(Nc1cccc(CO)c1)C12CC3CC(C1)CC(c1ccc(Cl)cc1)(C3)C2` [A9, 3-(4-Chloro-phenyl)-adamantane-1-carboxylic acid (3-hydroxymethyl-phenyl)-amide] the same measures were 40% and 84%. For `N#CCc1ccc(NC(=O)C23CC4CC(CC(C4)C2)C3)cc1` [A10, Adamantane-1-carboxylic acid (4-cyanomethyl-phenyl)-amide] the same measures were 9% and 3%.

Regarding `N#CCc1ccc(NC(=O)C23CC4CC(C2)CC(c2ccc(Cl)cc2)(C4)C3)cc1` [A11, 3-(4-Chloro-phenyl)-adamantane-1-carboxylic acid (4-cyanomethyl-phenyl)-amide], at 20 µg/mL the inhibition in assay [1] was 0%. The inhibition at 6 µg/mL on recombinant human SK was determined as 17%. Consider `N#Cc1ccc(/C=C/C(=O)C23CC4CC(C2)CC(c2ccc(Cl)cc2)(C4)C3)cc1` [A131, 4-{3-[3-(4-Chloro-phenyl)-adamantan-1-yl]-3-oxo-propenyl}-benzonitrile], for which the inhibition at 6 µg/mL at recombinant human SK was 41%.

As for `O=C(/C=C/c1ccc(O)cc1)C12CC3CC(C1)CC(c1ccc(Cl)cc1)(C3)C2` [A132, 1-[3-(4-Chloro-phenyl)-adamantan-1-yl]-3-(4-hydroxy-phenyl)-propenone], on recombinant human SK, the inhibition at 6 µg/mL turned out to be 8%.

Consider `O=C(/C=C/c1ccc2ccccc2c1)C12CC3CC(C1)CC(c1ccc(Cl)cc1)(C3)C2` [A133, 1-[3-(4-Chloro-phenyl)-adamantan-1-yl]-3-naphthalen-2-yl-propenone], for which the inhibition at 6 µg/mL at recombinant human SK is 36%. The same measure, in the same setting: the figure for `O=C(/C=C/c1ccc(Cl)nc1)C12CC3CC(C1)CC(c1ccc(Cl)cc1)(C3)C2` [A134, 1-[3-(4-Chloro-phenyl)-adamantan-1-yl]-3-(6-chloro-pyridin-3-yl)-propenone] is 52%; for `O=C(/C=C/c1cnc[nH]1)C12CC3CC(C1)CC(c1ccc(Cl)cc1)(C3)C2` [A135, 1-[3-(4-Chloro-phenyl)-adamantan-1-yl]-3-(1H-imidazol-4-yl)-propenone] it is 64%. Consider `O=C(NCCCN1CCCC1)c1nc(-c2ccc(Cl)cc2)cs1` [B59, 4-(4-Chloro-phenyl)-thiazole-2-carboxylic acid (3-pyrrrolidin-1-yl-propyl)-amide], for which the “Recombinant SK (% inhibition)” value on recombinant human SK came to 46%.

The values above are taken from patent US20120122870A1, “Treatment Of Ischemia-Reperfusion Injury” (MUSC FOUNDATION FOR RESEARCH DEVELOPMENT, priority 2009, published 2012).
